Assay results published in US9162979B2, “1,5-Diary1-2-alkylpyrrole-3-substituted nitro esters, selective COX-2 inhibitors and nitric oxide donors” (ROTTAPHARM BIOTECH S.R.L., priority 2010, dated 2015).
Where a name gives a salt, the structure may show the parent alone.

How the values were obtained:
COX-2 = COX-2 (Mus musculus (Mouse), UniProt Q05769); assay: Evaluation of COX-2 activity: PGE2 production in LPS-stimulated J774 cells; assay type: cell-based, murine; details: J774 cells stimulated 24 hours with LPS 10 μg/mL; PGE2 by radio-immunological assay; read-out: Cyclooxygenase inhibition COX-2 IC50
COX-2, sequence (Q05769 18-604): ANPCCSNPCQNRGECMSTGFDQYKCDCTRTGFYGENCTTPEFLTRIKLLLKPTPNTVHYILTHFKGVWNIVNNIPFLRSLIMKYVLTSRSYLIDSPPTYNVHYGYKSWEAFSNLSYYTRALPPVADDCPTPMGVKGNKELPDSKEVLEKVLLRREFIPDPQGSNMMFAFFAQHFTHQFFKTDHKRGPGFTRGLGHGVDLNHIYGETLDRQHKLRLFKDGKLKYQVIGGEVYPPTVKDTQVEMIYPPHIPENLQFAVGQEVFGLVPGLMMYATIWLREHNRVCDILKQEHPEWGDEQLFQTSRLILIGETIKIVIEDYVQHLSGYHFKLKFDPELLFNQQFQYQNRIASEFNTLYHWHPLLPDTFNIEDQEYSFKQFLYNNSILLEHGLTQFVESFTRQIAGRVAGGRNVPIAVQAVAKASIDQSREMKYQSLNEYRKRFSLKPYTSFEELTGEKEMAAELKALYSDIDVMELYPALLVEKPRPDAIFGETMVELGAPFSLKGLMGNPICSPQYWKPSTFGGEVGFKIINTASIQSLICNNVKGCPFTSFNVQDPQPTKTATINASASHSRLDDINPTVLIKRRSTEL
Protocol: The murine monocyte/macrophage cell line J774 is grown in Dulbecco's modified Eagle's medium (DMEM), enriched with glutamine (2 mM), HEPES (25 mM), penicillin (100 u/mL), streptomycin (100 μg/mL), 10% of fetal bovine serum (FBS) and 1.2% of sodium pyruvate. […] Just before the experiments, the culture medium is replaced with fresh medium without FBS to avoid interference during the radio-immunological phase and the cells are stimulated as described below.
The supernatants are collected for evaluating, by means of radio-immunological assays, the amount of PGE2 produced.
In each group of experiments, wells were used in triplicate for the different treatment conditions. […] The data were evaluated using the sigmoidal dose-response equation (variable slope) (GraphPad software). IC50 and the 95% precision intervals were calculated with the program GraphPad Instat (GraphPad software).

[1] = system: isolated rings of thoracic aorta; assay: Evaluation of release of NO: vasorelaxing activity on endothelium-denuded aortic rings contracted with KCl; parameters: species or system rat; details: Rattus norvegicus; relative to contractile tone induced by 20 mM KCl; 1 nM-10 μM; read-out: NO release properties Emax (maximum vasorelaxing effect)
Protocol: The activity of the compounds was evaluated on isolated rings of thoracic aorta of normotensive male Wistar rats (250-350 g). After light anaesthesia with ether, the rats were sacrificed by cervical dislocation and exsanguination. The aortas were immediately excised, extraneous tissues were removed and the endothelial layer was removed by gently rubbing the surface with a hypodermic needle. Rings of aorta with a width of 5 mm were suspended, with a preload of 2 g, in 20-ml organ baths, containing a solution of “Tyrode” (composition of the saline solution in mM: NaCl 136.8; KCl 2.95; CaCl2 1.80; MgSO4 1.05; NaH2PO4 0.41; NaHCO3 11.9; glucose 5.5), thermostatically controlled at 37° C. and kept in an atmosphere of O2 (95%) and CO2 (5%). […] were recorded by means of an isometric transducer (FTO3 Erba), connected to a microdynamometer (Buxco Electronics).
60 minutes after preparation, removal of the endothelium was confirmed by acetylcholine (ACH) (10 μM) treatment of the vascular rings pre-contracted with KCl (20 mM). Relaxation of less than 10% of the contraction induced by KCl was considered as representative of acceptable removal of the endothelial layer, whereas organs displaying relaxation ≧10% were discarded. 40 minutes after confirmation of complete removal of the endothelium, the aortas were contracted by treatment with a single dose of KCl (20 mM) and after the contraction reached a stable plateau, increasing cumulative concentrations (with progressive increments of 3 times) of the test compounds (1 nM-10 μM) were added. It was found from preliminary experiments that the contraction induced by KCl (20 mM) remained stable in a tonic state for at least 40 minutes. The same experiments were performed in the presence of a well-known inhibitor of guanylate cyclase: ODQ 1 μM, which was incubated in aorta preparations after confirmation of removal of the endothelium.
Analysis of the results. The vasorelaxing activity was evaluated as a percentage (%) relative to the contractile tone induced by 20 mM KCl. The pharmacodynamic efficacy parameter (Emax) corresponds to the maximum vasorelaxing effect induced by the molecule tested, expressed as percentage relative to the contractile tone induced by 20 mM KCl. When the limit concentration of 10 μM (the highest concentration administered) of the test compounds has not reached the maximum effect, the efficacy parameter (Emax) corresponds to the vasorelaxing effect induced by the limit concentration (expressed as percentage relative to the contractile tone induced by 20 mM KCl). The pharmacodynamic parameter of potency of the compounds was expressed as pIC50 calculated as the negative logarithm of the molar concentration of test compound that reduces the contractile tone induced by 20 mM KCl by half. […] The parameters of efficacy and potency were expressed as mean±standard error, for 5-10 experiments. The experimental data were analysed by the program GraphPad Prism 3.0.

## Cc1c(CC(=O)NCCCO[N+](=O)[O-])cc(-c2ccc(S(C)(=O)=O)cc2)n1-c1ccc(F)cc1 [Example 26, N-[(3-Nitroxy)propyl]-2-[1-(4-fluorophenyl)-2-methyl-5-(4-methylsulphonylphenyl)-1H-pyrrol-3-yl]acetamide]
other
  melting point: 127 °C

## Cc1c(CCOCCO[N+](=O)[O-])cc(-c2ccc(S(C)(=O)=O)cc2)n1-c1cccc(F)c1 (as salt: nitrate) [Example 38, 2-[2-[2-(1-(3-Fluorophenyl)-2-methyl-5-(4-methylsulphonylphenyl)-1H-pyrrol-3-yl]ethoxy]ethyl Nitrate]
other
  melting point: 94 to 97 °C

## Cc1c(C(N)C(=O)OCCO)cc(-c2ccc(S(C)(=O)=O)cc2)n1-c1cccc(F)c1 (racemic) [Example 17-II, (R,S)-2-(Hydroxy)ethyl-[2-amino-2-[1-(3-fluorophenyl)-2-methyl-5-(4-methylsulphonylphenyl)-1H-pyrrol-3-yl]]-acetate]
other
  melting point: 102 °C

## Cc1c(CCOCCCO[N+](=O)[O-])cc(-c2ccc(S(C)(=O)=O)cc2)n1-c1cccc(F)c1 (as salt: nitrate) [Example 42, 3-[2-(1-(3-Fluorophenyl)-2-methyl-5-(4-methylsulphonylphenyl)-1H-pyrrol-3-yl)ethoxy]propyl Nitrate]
other
  melting point: 111 to 113 °C

## Cc1c(CCOCCCO[N+](=O)[O-])cc(-c2ccc(S(C)(=O)=O)cc2)n1-c1ccc(F)cc1 (as salt: nitrate) [Example 41, 3-[2-[2-(1-(4-Fluorophenyl)-2-methyl-5-(4-methylsulphonylphenyl)-1H-pyrrol-3-yl)]ethoxy]propyl Nitrate]
other
  melting point: 114 to 116 °C

## Cc1c(CC(=O)OCCO)cc(-c2ccc(S(C)(=O)=O)cc2)n1-c1cccc(F)c1 [Example 3-II]
COX-2
  IC50: 85 nM
other
  melting point: 115 °C

## Cc1c(CCOCCO[N+](=O)[O-])cc(-c2ccc(S(C)(=O)=O)cc2)n1-c1ccc(F)c(F)c1 (as salt: nitrate) [Example 39, 2-[2-[2-(1-(3,4-Difluorophenyl)-2-methyl-5-(4-methylsulphonylphenyl)-1H-pyrrol-3-yl]ethoxy]ethyl Nitrate]
other
  melting point: 93 to 96 °C

## COc1ccc(-n2c(-c3ccc(S(C)(=O)=O)cc3)cc(CC(=O)OCCCCO[N+](=O)[O-])c2C)cc1 [Example 13, 4-(Nitrooxy)butyl-2-[1-(4-methoxyphenyl)-2-methyl-5-(4-methylsulphonylphenyl)-1H-pyrrol-3-yl]acetate]
COX-2
  IC50: 550 nM
other
  melting point: 109 °C

## Cc1c(CC(=O)OCCCO[N+](=O)[O-])cc(-c2ccc(S(C)(=O)=O)cc2)n1-c1ccc(F)cc1 [Example 7, 3-(Nitrooxy)propyl 2-[1-(4-fluorophenyl)-2-methyl-5-(4-methylsulphonylphenyl)-1H-pyrrol-3-yl]acetate]
other
  melting point: 126 to 128 °C

## Cc1c(CC(=O)OCCCO[N+](=O)[O-])cc(-c2ccc(S(C)(=O)=O)cc2)n1-c1ccccc1 [Example 6]
other
  melting point: 116 to 118 °C

## Cc1c(CC(=O)OCCCCO[N+](=O)[O-])cc(-c2ccc(S(C)(=O)=O)cc2)n1-c1ccc(F)cc1 [Example 11, 4-(Nitrooxy)butyl-2-[1-(4-fluorophenyl)-2-methyl-5-(4-methylsulphonylphenyl)-1H-pyrrol-3-yl]acetate]
other
  melting point: 102 to 104 °C
[1]
  Emax: 40 ± 8%

## Cc1c(C(N)C(=O)OCCO)cc(-c2ccc(S(C)(=O)=O)cc2)n1-c1ccc(F)cc1 (racemic) [Example 16-II, (R,S)-2-(Hydroxy)ethyl-[2-amino-2-[1-(4-fluorophenyl)-2-methyl-5-(4-methylsulphonylphenyl)-pyrrol-3-yl]]-acetate]
other
  melting point: 102 °C

## Cc1c(C(N)C(=O)OCCCCO[N+](=O)[O-])cc(-c2ccc(S(C)(=O)=O)cc2)n1-c1cccc(F)c1 (racemic) [Example 21, (R,S)-4-(Nitrooxy)butyl-[2-amino-2-[1-(3-fluorophenyl)-2-methyl-5-(4-methylsulphonylphenyl)-1H-pyrrol-3-yl]]-acetate]
other
  melting point: 110 °C

## COc1ccc(-n2c(-c3ccc(S(C)(=O)=O)cc3)cc(CC(=O)OCCO)c2C)cc1 [Example 4-II, 2-(Hydroxy)ethyl-[1-(4-methoxyphenyl)-2-methyl-5-(4-methylsulphonylphenyl)-1H-pyrrol-3-yl]-acetate]
COX-2
  IC50: 1100 nM
other
  melting point: 105 °C

## Cc1c(CC(=O)OCCO)cc(-c2ccc(S(C)(=O)=O)cc2)n1-c1ccc(F)cc1 [Example 2-II, 2-Hydroxyethyl-[2-(1-(4-fluorophenyl)-2-methyl-5-(4-methylsulphonylphenyl)-1H-pyrrol-3-yl)]acetate]
COX-2
  IC50: 89 nM
other
  melting point: 129 to 131 °C

## Cc1c(CC(=O)NCCO)cc(-c2ccc(S(C)(=O)=O)cc2)n1-c1ccc(F)cc1 [Example 23-II, N-[(2-Hydroxy)ethyl]-2-[1-(4-fluorophenyl)-2-methyl-5-(4-methylsulphonylphenyl)-1H-pyrrol-3-yl]acetamide]
COX-2
  IC50: 300 nM
other
  melting point: 99 °C

## Cc1c(CC(=O)NCCCO[N+](=O)[O-])cc(-c2ccc(S(C)(=O)=O)cc2)n1-c1cccc(F)c1 [Example 27, N-[(3-Nitroxy)propyl]-2-[1-(3-fluorophenyl)-2-methyl-5-(4-methylsulphonylphenyl)-1H-pyrrol-3-yl]acetamide]
other
  melting point: 125 °C

## Cc1c(CC(=O)NCCCO)cc(-c2ccc(S(C)(=O)=O)cc2)n1-c1cccc(F)c1 [Example 27-II, N-[(3-Hydroxy)propyl]-2-[1-(3-fluorophenyl)-2-methyl-5-(4-methylsulphonylphenyl)-1H-pyrrol-3-yl]acetamide]
COX-2
  IC50: 14 nM
other
  melting point: 102 °C

## Cc1c(CC(=O)NCCCO)cc(-c2ccc(S(C)(=O)=O)cc2)n1-c1ccc(F)cc1 [Example 26-II, N-[(3-Hydroxy)propyl]-2-[1-(4-fluorophenyl)-2-methyl-5-(4-methylsulphonylphenyl)-1H-pyrrol-3-yl]acetamide]
COX-2
  IC50: 68 nM
other
  melting point: 105 °C

## Cc1c(CCOCCCO[N+](=O)[O-])cc(-c2ccc(S(C)(=O)=O)cc2)n1-c1ccccc1 (as salt: nitrate) [Example 40, 3-[2-[2-(1-Phenyl-2-methyl-5-(4-methylsulphonylphenyl)-1H-pyrrol-3-yl)ethoxy]propyl Nitrate]
other
  melting point: 131 to 133 °C

## Cc1c(CCOCCCO)cc(-c2ccc(S(C)(=O)=O)cc2)n1-c1ccc(F)cc1 [Example 41-II, 3-[2-[2-(1-(4-Fluorophenyl)-2-methyl-5-(4-methylsulphonylphenyl)-1H-pyrrol-3-yl)]ethoxy]propanol]
COX-2
  IC50: 940 nM
other
  melting point: 100 to 102 °C

## Cc1c(C(N)C(=O)OCCCO[N+](=O)[O-])cc(-c2ccc(S(C)(=O)=O)cc2)n1-c1cccc(F)c1 (racemic) [Example 19, (R,S)-3-(Nitrooxy)propyl-[2-amino-2-[1-(3-fluorophenyl)-2-methyl-5-(4-methylsulphonylphenyl)-1H-pyrrol-3-yl]]-acetate]
other
  melting point: 117 °C
